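Grown in 96-well plates, cells were treated for 48 hours with each compound at five concentrations. Insufficient inhibition: endpoint recorded as highest concentration tested. GI50 is the concentration that inhibits growth by half.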 The source made the active and inactive calls. Cut-off read from the data, not from the text of the source: active = GI50 up to about 1.1 µM and inactive = higher.

What all share (assay): inhibition of tumour cell growth, NCI panel, 48 h
The subject of assay [1] is K562.
The test system of assay [2] is SF-295.
Assay [3] concerns Malme-3M.
Assay [4] concerns SF-539.
Assay [5] concerns SNB-75.
The subject of assay [6] is HOP-92.
For assay [7], the system named is HT-29.
Assay [8] relates to HCT-15.
Assay [9] relates to HL-60.
Assay [10] deals with 786-0.
Assay [11] deals with UACC-257.
Assay [12] concerns ACHN.
Assay [13] relates to SK-MEL-5.
For assay [14], the system named is HOP-62.
In assay [15] the test system is OVCAR-4.
Assay [16] has as its system SK-MEL-28.
Assay [17] has as its system M14.
Assay [18] concerns SK-MEL-2.
For assay [19], the system named is OVCAR-3.

As for `COc1cc(/C=N/c2nncs2)ccc1O`, the GI50 in assay [1], in assay [2], in [3], in [4], in [5] and in assay [6] was > 100 µM (inactive) each time. Besides, the GI50 is > 100 µM (inactive) in assay [7]; over 100 µM in assay [8]; > 100 µM (inactive) in [9]; > 100 µM (inactive) in assay [10]; > 100 µM (inactive) in assay [11]; > 100 µM (inactive) in assay [12]. The GI50 in [13], in assay [14], in assay [15], in assay [16], in assay [17] and in assay [18] was > 100 µM (inactive) in each case.
Consider `COC(=O)C(CC=O)C(=O)C(=O)Nc1cccc(C(F)(F)F)c1` (stereo unspecified), for which the GI50 in assay [1], in [2], in [3], in [19], in assay [4] and in [6] was > 100 µM (inactive) each time. For the same compound, the GI50 is > 100 µM (inactive) in assay [7]; over 100 µM in assay [8]; > 100 µM (inactive) in [9]; > 100 µM (inactive) in assay [10]; > 100 µM (inactive) in assay [11]; > 100 µM (inactive) in assay [12]. Also, the GI50 in [13], in [14], in assay [15], in assay [16], in [17] and in assay [18] was > 100 µM (inactive) throughout.
On to `Cn1c(CCC#N)nc2ccc(Br)cc2c1=O`, for which the GI50 in assay [1], in assay [2], in assay [3], in assay [4], in assay [5] and in [6] was > 100 µM (inactive) throughout. The GI50 in assay [7] is > 100 µM (inactive); in assay [8] it was over 100 µM; in [9], > 100 µM (inactive); in assay [10] it was > 100 µM (inactive); in assay [11], > 100 µM (inactive); in assay [12] it was > 100 µM (inactive). Also, the GI50 in assay [13], in assay [14], in assay [15], in [16], in [17] and in assay [18] was > 100 µM (inactive) throughout.
Take `CCc1cccc(CC)c1NC(=O)C(=O)Cc1nc2ccccc2o1`: the GI50 in assay [1], in assay [2], in assay [3], in assay [19], in assay [4] and in assay [6] was > 100 µM (inactive) throughout. In addition, the GI50 in assay [7] is > 100 µM (inactive); in assay [8] it was over 100 µM; in assay [9], > 100 µM (inactive); in assay [10], > 100 µM (inactive); in [11] it was > 100 µM (inactive); in assay [12] it was > 100 µM (inactive). The GI50 in [14], in [15], in [16], in assay [17] and in assay [18] was > 100 µM (inactive) each time.
Regarding `COc1ccc2c3ccc4c(c3n(C)c2c1)C(=O)c1ccccc1C4=O`, the GI50 in [1] is > 100 µM (inactive); in [2], 78.2 µM (inactive); in assay [3], 85.7 µM (inactive); in assay [4] it was 22.2 µM (inactive); in [5], > 100 µM (inactive); in assay [6], 80 µM (inactive). Moreover, the GI50 is 11.7 µM (inactive) in assay [7]; over 100 µM in assay [8]; > 100 µM (inactive) in assay [9]; 13.4 µM (inactive) in [10]; > 100 µM (inactive) in [11]; 51.3 µM (inactive) in [12]. For the same compound, the GI50 is > 100 µM (inactive) in [13]; > 100 µM (inactive) in assay [14]; 17.8 µM (inactive) in assay [15]; > 100 µM (inactive) in [16]; > 100 µM (inactive) in assay [17].
As for `O=S1(=O)OCCOS(=O)(=O)C1I`, the GI50 in [1] is > 100 µM (inactive); in assay [2], 56.2 µM (inactive); in assay [3], > 100 µM (inactive); in [19], > 100 µM (inactive); in assay [4], > 100 µM (inactive); in [5], > 100 µM (inactive). Further, the GI50 in [6] is > 100 µM (inactive); in assay [7], > 100 µM (inactive); in [9] it was 53.2 µM (inactive); in [10], 71 µM (inactive); in [11], > 100 µM (inactive); in [13], 66.8 µM (inactive). Besides, the GI50 in assay [14], in [15], in assay [16], in [17] and in assay [18] was > 100 µM (inactive) in each case.
`Cc1cc(O)c2c(c1)C(O)(c1ccc3c(c1O)C(=O)c1c(O)cc(C)cc1C3(O)C1OC(CO)C(O)C(O)C1O)c1cccc(O)c1C2=O` (stereo unspecified): the GI50 in assay [1] is 5.15 µM (inactive); in assay [2] it was 11.6 µM (inactive); in assay [3], 11.7 µM (inactive); in assay [19], 10.5 µM (inactive); in [4], 13.6 µM (inactive); in assay [5], 14.1 µM (inactive). For the same compound, the GI50 in [6] is 6.19 µM (inactive); in [7], 20.5 µM (inactive); in assay [8], 12.8 µM; in assay [9], 3.09 µM (inactive); in assay [10], 15.3 µM (inactive); in assay [11], 13.7 µM (inactive). Moreover, the GI50 in assay [12] was 13 µM (inactive); in [13], 18.9 µM (inactive); in assay [14], 15.3 µM (inactive); in assay [15], 12.9 µM (inactive); in assay [16] it was 15 µM (inactive); in assay [17] it was 14.4 µM (inactive).
Take `Cc1cccc(C)c1NC(=O)C(=O)C1C(=O)NC(=O)NC1=O`: the GI50 in assay [1], in assay [2], in assay [3], in assay [19], in [4] and in [6] was > 100 µM (inactive) each time. Besides, the GI50 is > 100 µM (inactive) in assay [7]; over 100 µM in assay [8]; > 100 µM (inactive) in [9]; > 100 µM (inactive) in [10]; > 100 µM (inactive) in assay [11]; > 100 µM (inactive) in assay [12]. The GI50 in [13], in [14], in [15], in [16] and in assay [17] was > 100 µM (inactive) each time.
In the case of `CCCCCCCCCCCCCC(=O)CSCCNC(=O)CCNC(=O)[C@@H](O)C(C)(C)COP(=O)(O)OP(=O)(O)OCC1OC(n2cnc3c(N)ncnc32)C(O)C1OP(=O)(O)O` (stereo partly specified), the GI50 in [2] is 13.4 µM (inactive); in assay [3], 17.9 µM (inactive); in assay [19], 38 µM (inactive); in [4], 16.2 µM (inactive); in assay [5] it was 5.7 µM (inactive); in assay [6] it was 11.5 µM (inactive). Besides, the GI50 in assay [7] is 18.8 µM (inactive); in assay [8], 17.1 µM; in assay [9], 20.5 µM (inactive); in assay [10] it was 15.5 µM (inactive); in assay [11], 18.1 µM (inactive); in assay [12], 18.2 µM (inactive). The GI50 in assay [13] is 18.9 µM (inactive); in [14], 16 µM (inactive); in [15], 6.75 µM (inactive); in assay [16], 18.3 µM (inactive); in assay [17] it was 18.1 µM (inactive); in assay [18], 17.2 µM (inactive).
Consider `CC(C)c1ccc(C(c2ccc(OCC(=O)O)cc2)c2ccc(C(C)C)cc(=O)c2O)c(O)c(=O)c1`, for which the GI50 is 3.41 µM (inactive) in assay [1]; 4.4 µM (inactive) in [2]; 2.77 µM (inactive) in assay [19]; 6.05 µM (inactive) in assay [4]; 3.29 µM (inactive) in assay [5]; 0.0478 µM (active) in [6]. The GI50 is 3.92 µM (inactive) in assay [7]; 3.56 µM in assay [8]; 3.27 µM (inactive) in assay [9]; 6.47 µM (inactive) in [10]; 5.6 µM (inactive) in assay [11]; 4.66 µM (inactive) in assay [12]. Besides, the GI50 was 3.22 µM (inactive) in assay [13]; 2.79 µM (inactive) in [14]; 3.61 µM (inactive) in assay [15]; 4.81 µM (inactive) in [16]; 3.18 µM (inactive) in [17].
In the case of `c1cc2c(cc1NC1=NCCO1)CCC2`, the GI50 was 9.75 µM (inactive) in assay [1]; > 10 µM (inactive) in assay [2]; > 10 µM (inactive) in assay [3]; > 10 µM (inactive) in [19]; 3.08 µM (inactive) in [4]; 9.1 µM (inactive) in assay [5]. The GI50 in [6] was 7.5 µM (inactive); in [7], > 10 µM (inactive); in [8], over 10 µM; in [9] it was 5.61 µM (inactive); in [10] it was > 10 µM (inactive); in [13], > 10 µM (inactive). In addition, the GI50 in assay [14], in assay [15], in [16] and in [18] was > 10 µM (inactive) throughout.

Values taken from ChEMBL document CHEMBL1201862, “PubChem BioAssay data set” (2004).
